Assay type in all cases: cell-based
Assay [1] has as its target T1, α4β1 (Homo sapiens, UniProt P05556+P13612).
T1 construct: Jurkat™ lymphoma T cells express high levels of α4β1 integrin; endogenous in cells; host or cells: Jurkat cells
Nature of the assay: α4β1-dependent Jurkat adhesion to rs-hu-VCAM-1. The note with it: read-out: EC50, adhesion of Jurkat cells to human VCAM-1. The text has this: Jurkat™ lymphoma T cells express high levels of α4β1 integrin and strongly adhere to VCAM-1 in an α4 integrin-dependent fashion.

For assay [2], the target named is T1, α4β1. Nature of the assay: α4β1-dependent Jurkat cell adhesion to human fibronectin. The note with it: TS2/16-activated α4β1, anti-α5 antibody present; read-out: EC50, Jurkat adhesion to FN. As for the experimental part: Jurkat™ cells adhere to fibronectin (FN) in an […] fashion.
5 μg/mL of an inhibitory antibody against α5 integrin (BD Pharmingen, Franklin Lakes, N.J.) is added to the buffer to prevent α5-dependent adhesion to FN.

The target in assay [3] is T2, activated α4β1 on Jurkat cells (Homo sapiens, UniProt P05556+P13612).
T2 construct: Jurkat™ lymphoma T cells express high levels of α4β1 integrin; endogenous in cells; host or cells: Jurkat cells
T2 sequence (P13612 34-1032): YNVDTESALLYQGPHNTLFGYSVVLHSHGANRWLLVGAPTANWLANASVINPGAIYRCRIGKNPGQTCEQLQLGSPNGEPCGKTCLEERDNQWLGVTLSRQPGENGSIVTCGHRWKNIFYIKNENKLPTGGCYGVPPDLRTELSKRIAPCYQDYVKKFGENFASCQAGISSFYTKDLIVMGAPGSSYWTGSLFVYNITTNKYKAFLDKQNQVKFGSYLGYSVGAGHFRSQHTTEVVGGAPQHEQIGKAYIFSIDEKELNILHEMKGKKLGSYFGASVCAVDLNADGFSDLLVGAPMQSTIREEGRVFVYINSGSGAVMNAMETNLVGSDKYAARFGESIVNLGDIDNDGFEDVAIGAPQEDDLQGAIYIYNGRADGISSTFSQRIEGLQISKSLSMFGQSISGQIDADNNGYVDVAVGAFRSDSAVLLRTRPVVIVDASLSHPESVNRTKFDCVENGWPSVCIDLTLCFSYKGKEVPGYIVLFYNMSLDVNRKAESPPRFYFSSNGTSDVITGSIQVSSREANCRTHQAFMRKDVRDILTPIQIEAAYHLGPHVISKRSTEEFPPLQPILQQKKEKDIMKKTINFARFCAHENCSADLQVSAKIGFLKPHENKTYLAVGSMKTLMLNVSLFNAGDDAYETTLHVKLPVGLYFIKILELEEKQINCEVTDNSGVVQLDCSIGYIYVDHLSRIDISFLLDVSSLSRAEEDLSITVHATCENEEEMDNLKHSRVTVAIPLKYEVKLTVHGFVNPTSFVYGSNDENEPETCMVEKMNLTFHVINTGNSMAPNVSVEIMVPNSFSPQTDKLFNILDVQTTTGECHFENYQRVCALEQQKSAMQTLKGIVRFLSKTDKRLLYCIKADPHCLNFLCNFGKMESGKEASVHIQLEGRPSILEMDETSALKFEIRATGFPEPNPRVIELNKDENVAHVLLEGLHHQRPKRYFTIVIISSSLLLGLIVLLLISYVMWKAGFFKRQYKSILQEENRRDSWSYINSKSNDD
T2 sequence (P05556 21-798): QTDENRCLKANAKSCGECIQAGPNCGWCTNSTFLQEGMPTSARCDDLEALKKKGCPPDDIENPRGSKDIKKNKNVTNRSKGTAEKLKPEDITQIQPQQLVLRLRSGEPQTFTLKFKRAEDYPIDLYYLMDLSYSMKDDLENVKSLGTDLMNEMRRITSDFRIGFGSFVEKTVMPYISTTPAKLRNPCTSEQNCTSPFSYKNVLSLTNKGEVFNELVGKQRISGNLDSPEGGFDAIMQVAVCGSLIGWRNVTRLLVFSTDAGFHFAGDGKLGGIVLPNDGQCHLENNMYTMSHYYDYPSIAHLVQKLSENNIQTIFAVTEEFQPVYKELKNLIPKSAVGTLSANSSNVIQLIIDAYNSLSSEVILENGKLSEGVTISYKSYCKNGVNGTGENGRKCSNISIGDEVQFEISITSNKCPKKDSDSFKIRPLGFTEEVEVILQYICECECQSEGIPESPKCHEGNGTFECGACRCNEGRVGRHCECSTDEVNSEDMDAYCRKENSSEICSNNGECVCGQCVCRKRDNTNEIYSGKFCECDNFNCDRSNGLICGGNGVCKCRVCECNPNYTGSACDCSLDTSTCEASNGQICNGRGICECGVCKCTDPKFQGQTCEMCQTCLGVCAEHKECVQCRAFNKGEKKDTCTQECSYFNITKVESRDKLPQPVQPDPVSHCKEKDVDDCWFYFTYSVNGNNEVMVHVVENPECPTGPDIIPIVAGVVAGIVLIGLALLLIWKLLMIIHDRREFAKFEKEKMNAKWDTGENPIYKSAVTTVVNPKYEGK
Nature of the assay: α4β1-FN capture assay in human serum (Jurkat cells, FACS). The note with it: 50% human serum. As for the experimental part: The α4β1 receptors on Jurkat™ cell surfaces can capture, in solution, the endogenous FN present in serum.
An equal volume of assay buffer containing 50% human serum, the antibody 15/7 (2×, 20 μg/ml) and MnCl2 (2×, 3 mM) was then added to each well. These reagents served as α4 integrin activating agents, allowing the receptor to capture FN from the serum. The plate was then incubated for another 30 minutes at RT.

Structures are written as SMILES.

T1 sequence (P13612 34-1032): as the sequence (P13612 34-1032) above
T1 sequence (P05556 21-798): as the sequence (P05556 21-798) above

A word on the EC50: it is the midpoint of the concentration-response curve. In the case of `CC1(C)SCN(S(=O)(=O)c2cccnc2)[C@@H]1C(=O)N[C@@H](Cc1ccc(-n2c(=O)[nH]c3cccnc32)cc1)C(=O)O`, the EC50 in assay [1] turned out to be 11.6 nM; in assay [2], 0.1 nM. The “fold less potent than Formula (I), FN capture” value in assay [3] is 2.6 fold.

Source of the values: US20120059029A1 (Elan Pharmaceuticals, Inc., priority 2010, published 2012).
